Measured values as given in patent US7271130B2 (priority 2002, dated 2007).

Test system: Erysiphe graminis f.sp. hordei
Type: in vivo
Conditions: 200 ppm

CC#CC(C)(C)NC(=O)C(COC)Oc1cc(Cl)cc(Cl)c1 (stereo not shown) [4(1), 2-(3,5-dichlorophenoxy)-3-methoxy-N-(4-methylpent-2-yn-4-yl)propionamide]
control of fungal infection: at least 70%
